The first series in a line: method code SF, from DOI: 10.1002/jps.2600790712, PMID: 2398468.
On to `C[C@H](CCCNCc1ccccc1)[C@H]1CC[C@H]2[C@@H]3C[C@H](O)[C@@H]4C[C@H](O)CC[C@]4(C)[C@H]3CC[C@]12C`, for which the logP (usually a log measure of how a compound divides between an organic and an aqueous phase) came out at 4.15.

A further series in a line: method code SF-AS, from DOI: 10.1002/jps.2600790712, PMID: 2398468.
In the case of `C[C@H](CCCNCc1ccccc1)[C@H]1CC[C@H]2[C@@H]3CC[C@@H]4C[C@H](O)CC[C@]4(C)[C@H]3C[C@H](O)[C@]12C`, the lipophilicity (logP) came to 4.8.

For `C[C@H](CCC(=O)NCc1ccccc1)[C@H]1CC[C@H]2[C@@H]3[C@H](O)C[C@@H]4C[C@H](O)CC[C@]4(C)[C@H]3C[C@H](O)[C@]12C`, the logP is 3.54.

Turning to `C[C@H](CCCNCc1ccccc1Cl)[C@H]1CC[C@H]2[C@@H]3CC[C@@H]4C[C@H](O)CC[C@]4(C)[C@H]3CC[C@]12C`, the logP came to 5.05.

For the compound `C[C@H](CCCN)[C@H]1CC[C@H]2[C@@H]3[C@@H](O)C[C@@H]4C[C@H](O)CC[C@]4(C)[C@H]3CC[C@]12C`, the logP is 4.

For the compound `C[C@H](CCCNCc1ccccc1)[C@H]1CC[C@H]2[C@@H]3[C@H](O)C[C@@H]4C[C@H](O)CC[C@]4(C)[C@H]3CC[C@]12C`, the log partition coefficient (logP) is 4.2.

Compound `C[C@H](CCCNCc1ccccc1)[C@H]1CC[C@H]2[C@@H]3[C@H](O)C[C@@H]4C[C@H](O)CC[C@]4(C)[C@H]3C[C@H](O)[C@]12C` displayed a logP of 3.82.

Regarding `C[C@H](CCCNCc1cccc(Cl)c1)[C@H]1CC[C@H]2[C@@H]3CC[C@@H]4C[C@H](O)CC[C@]4(C)[C@H]3CC[C@]12C`, the logP was determined as 4.95.

Take `C[C@H](CCCNCc1ccccc1)[C@H]1CC[C@H]2[C@@H]3CC[C@@H]4C[C@H](O)CC[C@]4(C)[C@H]3CC[C@]12C`: the lipophilicity (logP) stood at 4.9.

As to `C[C@H](CCCNCc1ccc(Cl)cc1)[C@H]1CC[C@H]2[C@@H]3CC[C@@H]4C[C@H](O)CC[C@]4(C)[C@H]3CC[C@]12C`, the logP amounted to 5.

Source of the values: the SangsterLogP compilation.
